From patent US20260248773A1, “POTASSIUM CHANNEL BLOCKERS OR DERIVATIVES THEREOF FOR PREVENTING, ALLEVIATING, AND/OR TREATING TISSUE DYSFUNCTION CAUSED BY TOXIC INSULTS” (priority 2022, published 2026)

Key:
kidney = experiment: Kidney histology (H&E) after PTX with or without 4-AP (Example 8); assay type: in vivo, mice; settings: PTX treated, daily saline
Protocol: To examine effects on the kidney histological studies were conducted on this tissue. Mice received PTX on day 0 of the experiment, and half of those mice also were injected with 4-AP at this time, and every day thereafter, at a dosage of 2 mg/kg. Mice not receiving 4-AP were injected with saline to control for any stress induced by daily injections. Experimental groups also included mice receiving no PTX treatment, and treated only with daily injections of saline. Mice were sacrificed after 1 week. Mice were perfused with 4% paraformaldehyde and kidneys were sectioned and stained with haematoxylin & eosin (H&E).

[1] = system: glial fibrillary acidic protein (GFAP); experiment: GFAP immunofluorescence in corpus callosum after PTX with or without 4-AP (Example 9); assay type: in vivo; settings: E0771 tumor-bearing mice; PTX 35 mg/kg day one
Protocol: To determine whether 4-AP treatment can prevent PTX-induced increases in a reactive inflammatory response in the brain, as detected by increased expression of glial fibrillary acidic protein (GFAP), 16-week-old female C57BL/6 mice were inoculated with a triple negative murine breast cancer cell line E0771. When tumors were palpable, the mice were injected with either paclitaxel and water, 4-AP, both, or saline as a control. Paclitaxel (35 mg/kg) was injected on day one and 4-AP and water were injected daily. The mice were sacrificed on day nine and their brains were perfused and harvested. Brains were cryosectioned coronally.
The mouse brain sections were stained with anti-GFAP antibodies, followed by a fluorescent secondary, for analysis via immunofluorescence.

[2] = system: chemotherapy-induced peripheral neuropathy (CIPN) caused by PTX; settings: mouse, in vivo
Protocol: More specifically, initial studies were conducted on the specific case of CIPN as induced by exposure to PTX. […] 16 week old C73L/6 female mice were given a single dose of 35 mg/kg PTX (i.p.). Animals were separated into control (saline, i.p., n=4) or treatment group (2 mg/kg 4-AP daily, i.p., n=4). Pre-treatment Catwalk scores were compared to 21 days post-PTX injection.
To align with clinical treatments, mice were treated with a PTX dose of 35 mg/kg (equivalent to approximately 110 mg/m^2 and within the clinical treatment range) for four cycles, each three weeks apart.
The studies also included a 4-AP treatment arm (n=4) with a daily dose of 2 mg/kg 4-AP administered i.p. (as per most previous studies by MN and colleagues).
To evaluate detailed functional changes in gait, the CatWalk™ (Noldus Information Technology, Wageningen, The Netherlands) method was implemented.
Sciatic nerve samples were harvested and resin-embedded, sectioned and imaged using transmission electron microscopy. Images were analyzed to calculate markers of peripheral neuropathy, namely: axon counts, fiber size, myelination (g ratio), and circumferential irregularity (FIG. 2).

CIPN = settings: 0-10 point scale; cited from earlier work

Structure (SMILES): CC(=O)O[C@H]1C(=O)[C@@]2(C)[C@H]([C@H](OC(=O)c3ccccc3)[C@]3(O)C[C@H](OC(=O)[C@H](O)[C@@H](NC(=O)c4ccccc4)c4ccccc4)C(C)=C1C3(C)C)[C@]1(OC(C)=O)CO[C@@H]1C[C@@H]2O [PTX, paclitaxel]
- kidney histology after PTX, H&E staining (kidney): Loss of brush borders (dark grey arrows), nuclear dropout (grey arrow), and blebbing of tubular epithelial cells
- expression of GFAP after PTX, corpus callosum [1]: increased expression of GFAP
- tolerability of PTX dose [2]: tolerated the dose

Structure (SMILES): CNCC[C@H](Oc1cccc2ccccc12)c1cccs1 [duloxetine]
- average reduction in pain (CIPN): 0.72 point
